Data: patent publication US11553718B2, “Mic reduction with lithium ions” (priority 2014, dated 2023)
Where “and” joins values, the source holds several entries; their conditions need not be identical. Equal values may be shown once. Read-outs that look alike come from different tables or passages of the source.

How the values were obtained:
[1] = test system: S. aureus strain DSMZ 346; experiment: MIC determination / bacterial count in CaCO3 slurry with or without lithium ions; type: cell-based; conditions: for MIC: Staphylococcus aureus, DSMZ346, S. aureus, read-out: MIC active/aequeous; for bacterial count: S. aureus DSMZ 346; for antimicrobial effect of lithium ions provided alone: S. aureus strain
Experimental: (§1) When not otherwise indicated, the quoted bacterial counts (values are in cfu/plate) in the Tables here below are determined after 2 days following plate-out and incubation at 30° C. The counting method was as follows. The aqueous preparations were stirred well with a cotton swap (e.g. Applimed SA, No. 1102245); the excess aqueous preparation was removed by dipping it gently to the side of the aqueous preparation container, leaving approximately 200 mg of aqueous preparation on the swap. […] TSA plates were then incubated for 48 h at 30° C. Colony forming units (cfu) were then counted and reported as cfu/plate. Counts from 100 to 999 cfu per plate are reported as ≥100 cfu/plate. Counts of 1000 cfu and above per plate are reported as ≥1000 cfu/plate. Yeast and moulds were counted as described for bacteria with the following exceptions, a) Sabouraud Dextrose Agar (SDA) containing Chloramphenicol (e.g. heipha Dr. Miller GmbH, No. 1460030020) were used instead of TSA, b) SDA plates were incubated at 25° for 5 days and c) cfu were counted and reported after 48 h and 5 days of incubation. Yeast and moulds counts from 20 to 99 cfu per plate are reported as […]. Yeast and moulds counts of 100 cfu and above per plate are reported as >100 cfu/plate.
(§2) For determining the MIC, the tested microorganism, i.e. the strain of bacteria and/or strain of yeast and/or strain of mould, were freshly grown until the end of the logarithmic growth phase according to the requirements of the individual species to a density of approximately 10^7-10^9 cells/ml.
(§3) For example, fresh bacteria cultures of the bacteria E. coli, e.g. E. coli ATCC 11229, and S. aureus, e.g. S. aureus strains DSMZ 346, were prepared by inoculation of 3 ml liquid growth media (tryptic soy broth, e.g. Fluka Cat. No. 22092) from a stock culture and incubation for 16 to 20 h at 30° C. with agitation at 150 rotations per minutes (rpm) leading to a cell density of approximately 2×10^8 cells/ml. Fresh cultures of resistant bacteria, adapted to the conditions in biocide containing CaCO3 slurries, were prepared by inoculation of 50 g 75 wt.-% solid content CaCO3 slurry from a stock culture and incubated for 14 to 28 days at 30° C. without agitation.
(§4) Lithium ions were added to the aqueous preparation (e.g. CaCO3 slurry) by the addition of a water soluble lithium salt. For example to 50 g CaCO3 slurry with a solid content of 75% (w/w) 1.177 ml of a 74 g/Li2CO3 suspension was added and mixed well leading to a lithium ion concentration of 172 mM or 1205 ppm in the water phase. As another example to 50 g CaCO3 slurry with a solid content of 75 wt.-% (w/w) 0.04 ml of a 292 g/L Li3Citrate (2M) solution was added and mixed well leading to a lithium ion concentration of 19 mM or 135 ppm in the water phase.
(§5) The biocide to be tested was added to the aqueous preparation (e.g. CaCO3 slurry with or without lithium ions) in increasing concentrations starting from 0 ppm (without biocide). The concentrations ranged from concentrations higher than recommended by the supplier, to very low amounts (as low as 1 ppm or lower). Of each biocide concentration a 3 ml sample of aqueous preparation was combined with 20 μl fresh bacterial culture.
(§6) All samples were incubated at 30° C. for 24 h. After incubation colony forming units (cfu) per plate (cfu/plate) were determined as described above under bacterial count.
(§7) The MIC for bacteria is defined as the lowest concentration of biocide in the presence or absence of lithium ion amongst all samples tested, where the bacterial concentration dropped below 100 cfu/plate. The MIC for yeast and mould is defined as the lowest concentration of biocide in the presence or absence of lithium ion amongst all samples tested, where the microbial concentration dropped below 20 cfu/plate.

E. coli strain ATCC11229 = experiment: as above; type: cell-based; conditions: for bacterial count: E. coli ATCC11229; for MIC ratio (MICwithout Li/MICLi): E. coli; for MIC: Escherichia coli
Experimental: as §1, §2, §3, §4, §5, §6, §7

bacterial strain rOmyAK = experiment: microbe, parasite or virus in culture; type: cell-based, Pseudomonas mendocina; conditions: for MIC: Thioalkalivibrio paradoxus, read-out: MIC active/aequeous, rOmyAK; for MIC ratio (MICwithout Li/MICLi): rOmyAK
Experimental: as §1, §2, §3, §4, §5, §6, §7

S. aureus = experiment: Curative MIC (bacteria added before biocide and lithium); type: cell-based; conditions: Curative treatment, Li^+ 329 mM (2305 ppm), Li2CO3
rOPP strain = experiment: MIC determination in CaCO3 slurry with or without lithium ions; type: cell-based, Pseudomonas mendocina; conditions: Li2CO3; for MIC: Ectopseudomonas mendocina, read-out: MIC active/aequeous, rOPP; for MIC ratio (MICwithout Li/MICLi): rOPP
Experimental: as §1, §2, §3, §4, §5, §6, §7

[2] = S. aureus, Li^+ 423 mM (2964 ppm), Li2CO3
[3] = ATCC11229, read-out: MIC active/aequeous, E. coli, Li^+ 197 mM (1380 ppm), Li2CO3
[4] = ATCC11229, read-out: MIC active/aequeous, E. coli, Li^+ 329 mM (2305 ppm), Li2CO3
[5] = ATCC11229, read-out: MIC active/aequeous, E. coli, no Li^+
[6] = S. aureus, Li^+ 197 mM (1380 ppm), Li2CO3
[7] = S. aureus, Li^+ 329 mM (2305 ppm), Li2CO3

## Cc1cc(O)ccc1Cl [4-Chloro-3-methylphenol]
[1]; [2]
  MIC ratio (MICwithout Li/MICLi): 1.5
[1]; Li^+ 423 mM (2964 ppm), Li2CO3
  MIC: 2480 µM and 354 µg/mL
[1]; no Li^+
  MIC: 3720 µM and 531 µg/mL
E. coli strain ATCC11229; 88.5 ppm 4-chloro-3-methylphenol, 197 mM Li^+
  bacterial count: ≥100 cfu/plate
E. coli strain ATCC11229; 88.5 ppm 4-chloro-3-methylphenol, no Li^+
  bacterial count: ≥1000 cfu/plate
E. coli strain ATCC11229; Li^+ 197 mM (1380 ppm), Li2CO3
  MIC ratio (MICwithout Li/MICLi): 2
E. coli strain ATCC11229; Li^+ 329 mM (2305 ppm), Li2CO3
  MIC ratio (MICwithout Li/MICLi): 4
E. coli strain ATCC11229; [3]
  MIC: 177 µg/mL and 1240 µM
E. coli strain ATCC11229; [4]
  MIC: 620 µM and 88.5 µg/mL
E. coli strain ATCC11229; [5]
  MIC: 354 µg/mL and 2480 µM

## [Na+].[O-][n+]1ccccc1[S-] [Sodium pyrithione]
E. coli strain ATCC11229; Li^+ 197 mM (1380 ppm), Li2CO3
  MIC ratio (MICwithout Li/MICLi): 3

## O=[N+]([O-])C(Br)(CO)CO [Bronopol]
[1]; S. aureus, Li^+ 172 mM (1205 ppm), Li2CO3
  MIC ratio (MICwithout Li/MICLi): 6
[1]; [6]
  MIC ratio (MICwithout Li/MICLi): 2
[1]; [7]
  MIC ratio (MICwithout Li/MICLi): 6
[1]; [2]
  MIC ratio (MICwithout Li/MICLi): 20
[1]; Li^+ 172 mM (1205 ppm), Li2CO3
  MIC: 150 µM and 30 µg/mL
[1]; Li^+ 197 mM (1380 ppm), Li2CO3
  MIC: 450 µM and 90 µg/mL
[1]; Li^+ 329 mM (2305 ppm), Li2CO3
  MIC: 150 µM and 30 µg/mL
[1]; Li^+ 423 mM (2964 ppm), Li2CO3
  MIC: 50 µM and 9 µg/mL
[1]; no Li^+
  MIC: 900 µM and 180 µg/mL
E. coli strain ATCC11229; Li^+ 172 mM (1205 ppm), Li2CO3
  MIC ratio (MICwithout Li/MICLi): >3.75
E. coli strain ATCC11229; Li^+ 197 mM (1380 ppm), Li2CO3
  MIC ratio (MICwithout Li/MICLi): 3
E. coli strain ATCC11229; ATCC11229, E. coli, Li^+ 172 mM (1205 ppm), Li2CO3, read-out: MIC active/aequeous
  MIC: 120 µM and 24 µg/mL
E. coli strain ATCC11229; ATCC11229, E. coli, Li^+ 197 mM (1380 ppm), Li2CO3, read-out: MIC active/aequeous
  MIC: 180 µM and 35.4 µg/mL
E. coli strain ATCC11229; ATCC11229, E. coli, no Li^+, read-out: MIC active/aequeous
  MIC: 530 µM and 106 µg/mL

## C=O [Formaldehyde]
Bacterial strain rOmyAK; Li^+ 197 mM (1380 ppm), Li2CO3
  MIC: 11800 µM and 354 µg/mL
  MIC ratio (MICwithout Li/MICLi): >3
Bacterial strain rOmyAK; no Li^+
  MIC: > 35400 µM and > 1060 µg/mL
[1]
  MIC ratio (MICwithout Li/MICLi): >10
E. coli strain ATCC11229; Li^+ 197 mM (1380 ppm), Li2CO3
  MIC ratio (MICwithout Li/MICLi): >2
E. coli strain ATCC11229; [3]
  MIC: 590 µM and 17.7 µg/mL
E. coli strain ATCC11229; [5]
  MIC: > 1180 µM and > 35.4 µg/mL

## O=CCCCC=O [Glutaraldehyde]
[1]; [6]
  MIC ratio (MICwithout Li/MICLi): >10
[1]; Li^+ 197 mM (1380 ppm), Li2CO3
  MIC: 40 µM and 3.54 µg/mL
[1]; no Li^+
  MIC: > 350 µM and > 35.4 µg/mL

## [Li+] [Li^+]
Bacterial strain rOmyAK; rOmy AK strain, lithium ions via Li2CO3, no biocide
  antimicrobial effect of lithium ions provided alone: no antimicrobial effect
Bacterial strain rOmyAK; rOmy AK, no MIT, 329 mM Li^+ (Li2CO3) alone
  bacterial count: ≥1000 cfu/plate
[1]; no CMIT/MIT, 197 mM Li^+ (Li2CO3) alone
  bacterial count: ≥1000 cfu/plate
[1]; no Sodium pyrithione, 96 mM Li^+ (lithium citrate) alone
  bacterial count: ≥1000 cfu/plate
[1]; lithium ions via Li2CO3, no biocide
  antimicrobial effect of lithium ions provided alone: no antimicrobial effect
[1]; lithium ions via lithium citrate, no biocide
  antimicrobial effect of lithium ions provided alone: no antimicrobial effect
E. coli strain ATCC11229; no 4-chloro-3-methylphenol, 197 mM Li^+ (Li2CO3) alone
  bacterial count: ≥100 cfu/plate
E. coli strain ATCC11229; E. coli strain, lithium ions via Li2CO3, no biocide
  antimicrobial effect of lithium ions provided alone: no antimicrobial effect

## O=c1[nH]sc2ccccc12 [Benzisothiazolinone (BIT), Benzisothiazolinone]
S. aureus
  MIC ratio (MICwithout Li/MICLi): 2
[1]; [2]
  MIC ratio (MICwithout Li/MICLi): >2

## Polyethoxyethoxyethylguanidinium hexachloride
E. coli strain ATCC11229; Li^+ 197 mM (1380 ppm), Li2CO3
  MIC ratio (MICwithout Li/MICLi): >1.33
E. coli strain ATCC11229; Li^+ 423 mM (2964 ppm), Li2CO3
  MIC ratio (MICwithout Li/MICLi): >8

## OC1OCCOC1O (stereo not shown) [1,6-Dihydroxy-2,5-dioxane]
Bacterial strain rOmyAK; Li^+ 197 mM (1380 ppm), Li2CO3
  MIC: 8700 µM and 1060 µg/mL
  MIC ratio (MICwithout Li/MICLi): >1.5
Bacterial strain rOmyAK; Li^+ 423 mM (2964 ppm), Li2CO3
  MIC: 5800 µM and 708 µg/mL
  MIC ratio (MICwithout Li/MICLi): >2.25
Bacterial strain rOmyAK; no Li^+
  MIC: 3100 µM and > 1590 µg/mL

## O=S(=O)(C(Cl)(Cl)Cl)C(Cl)(Cl)Cl [Hexachlorodimethyl sulfone]
[1]; [7]
  MIC ratio (MICwithout Li/MICLi): 1.33
E. coli strain ATCC11229; Li^+ 197 mM (1380 ppm), Li2CO3
  MIC ratio (MICwithout Li/MICLi): 1.67

## N#CSCSC#N [Methylene bis(thiocyanate)]
[1]; [7]
  MIC ratio (MICwithout Li/MICLi): 4.04

## Oc1ccccc1-c1ccccc1 [2-Phenylphenol (OPP), 2-Phenylphenol]
rOPP strain; Li^+ 172 mM (1205 ppm)
  MIC: 260 µM and 45 µg/mL
  MIC ratio (MICwithout Li/MICLi): 2
rOPP strain; Li^+ 197 mM (1380 ppm)
  MIC: 2080 µM and 354 µg/mL
  MIC ratio (MICwithout Li/MICLi): >4.5
rOPP strain; Li^+ 329 mM (2305 ppm)
  MIC: 1040 µM and 177 µg/mL
  MIC ratio (MICwithout Li/MICLi): >9
[1]; S. aureus, Li^+ 53 mM (370 ppm), Li2CO3
  MIC ratio (MICwithout Li/MICLi): 2
[1]; S. aureus, Li^+ 67 mM (470 ppm), LiOH
  MIC ratio (MICwithout Li/MICLi): 10
[1]; Li^+ 53 mM (370 ppm), Li2CO3
  MIC: 880 µM and 150 µg/mL
[1]; Li^+ 67 mM (470 ppm), LiOH
  MIC: 180 µM and 30 µg/mL
[1]; no Li^+
  MIC: 1760 µM and 300 µg/mL
E. coli strain ATCC11229; Li^+ 197 mM (1380 ppm), Li2CO3
  MIC ratio (MICwithout Li/MICLi): 1.5
E. coli strain ATCC11229; [3]
  MIC: 2080 µM and 354 µg/mL
E. coli strain ATCC11229; [5]
  MIC: 3120 µM and 531 µg/mL

## CCCCCCCCCCCCN=C(N)N.Cl [Guanidinedodecyl monochloride]
E. coli strain ATCC11229; Li^+ 197 mM (1380 ppm), Li2CO3
  MIC ratio (MICwithout Li/MICLi): >2.4

## CN1CSC(=S)N(C)C1 [3.5-Dimethyltetrahydro-1,3,5-thiadiazine-2-]
[1]; [2]
  MIC ratio (MICwithout Li/MICLi): >2.5
[1]; Li^+ 423 mM (2964 ppm), Li2CO3
  MIC: 440 µM and 70.8 µg/mL
[1]; no Li^+
  MIC: > 1090 µM and > 177 µg/mL
E. coli strain ATCC11229; Li^+ 329 mM (2305 ppm), Li2CO3
  MIC ratio (MICwithout Li/MICLi): 1.25
E. coli strain ATCC11229; [4]
  MIC: 870 µM and 142 µg/mL
E. coli strain ATCC11229; [5]
  MIC: 1090 µM and 177 µg/mL
